Results published in patent US20190358247A1 (The Medical College of Wisconsin, Inc., priority 2016, published 2019).
Where two headings read alike, the source gives them in different places.

Legend:
MiaPaCa-2 cells [1] = test: Radiosensitization, clonogenic survival after X-radiation; type: cell-based, human; details: 24 h pretreatment (1 mM Met, 1 μM Mito-Met) before X-radiation
Experimental: MiaPaCa2 cells (1000 cells/well) were cultured in quadruplicate overnight in 96-well plates and changed to fresh medium.
Radiation experiments. […] The cells were then treated with X-radiation at a dose of 0, 2, 4, and 6 Gy. The control cells were treated with the same concentration of vehicle (0.1% DMSO) where appropriate. After irradiation, cells were suspended and seeded at various densities (100-8,000 cells per well) in 6-well plates for clonogenic assay as described above. The plates were kept within the incubator and media changed every 3-4 days for 2 weeks. Wells with 10-50 sufficiently large clones were chosen for calculating the cell survival fractions.
Effect of Mito-Met and Met on PDAC radiosensitivity. Both control cells and cells were pretreated for 24 h with 1 mM Met or Mito-Met (1 μM) prior to X-radiation. Cell survival was measured by a clonogenic assay.

MiaPaCa-2 cells [2] = test: Intracellular uptake by LC-MS/MS; details: MiaPaCa-2, 1 μM, 1 h
Experimental: Cells were grown on 10 cm dishes and treated with the compounds for 24 h in full media.
Next we investigated the relative uptake of different Mito-Met analogs (Mito-Met2, Mito-Met6, and Mito-Met10) and phenformin in MiaPaCa-2 cells (FIG. 12D). Cells were treated with respective Mito-Met analog (1 μM) for 1 h. Cells were lysed after washing and analyzed for Mito-Met analog by LC-MS.

[3] = mouse, in vivo
Experimental: In an initial proof-of-concept experiment, syngeneic KPC cells expressing Firefly luciferase (FC1242-luc) were orthotopically implanted to the pancreas of C57BL/6 mice and tumor growth monitored using bioluminescence imaging (FIG. 15F). Mice orthotopically autografted with FC1242-luc cells were treated daily with 1 mg/kg or 150 mg/kg Met, or 1 mg/kg Mito-Met. […] Serum from these animals was collected, and hepatic and kidney toxicity tested using standard AST, ALT, AP, and BUN assays, respectively.

MCF-10A = test: IncuCyte cell confluence assay, nonmalignant breast epithelial cells; type: cell-based
Experimental: (§1) IncuCyte Analyzer-real time measurement of cell proliferation. The cell proliferation was measured using a label-free, noninvasive cellular confluence assay by IncuCyte Live-Cell Imaging Systems (Essen Bioscience, Ann Arbor, Mich., USA; IncuCyte FLR). This system enables collection of live cell images at 2 h intervals over several days. The IncuCyte Analyzer provides real-time cellular confluence data based on segmentation of high-definition phase-contrast images. The cell proliferation is expressed as an increase in percentage of cell confluence.

MiaPaCa-2 cells [4] = test: Clonogenic (colony formation) assay; type: cell-based, human
Experimental: Clonogenic assay. […] The plates were kept within the incubator and media changed every 3-4 days until the control cells formed sufficiently large clones. The cell survival fractions were calculated as previously described.
MiaPaCa-2 cells were treated with a range of concentrations as shown (FIG. 10C), and the number of colonies formed were counted.

HaCaT = test: IncuCyte cell confluence assay, keratinocytes; type: cell-based
Experimental: as §1

mitochondrial complex I = mitochondrial complex I (Homo sapiens, UniProt O75251+O75306+P03886); test: Complex I oxygen consumption (pyruvate/malate) in permeabilized cells, Seahorse XF96; type: cell-based; design: IC50, complex I oxygen consumption; other: permeabilized MiaPaCa-2, added acutely; details: permeabilized MiaPaCa-2, added acutely
Chain of mitochondrial complex I (P03886 whole entry): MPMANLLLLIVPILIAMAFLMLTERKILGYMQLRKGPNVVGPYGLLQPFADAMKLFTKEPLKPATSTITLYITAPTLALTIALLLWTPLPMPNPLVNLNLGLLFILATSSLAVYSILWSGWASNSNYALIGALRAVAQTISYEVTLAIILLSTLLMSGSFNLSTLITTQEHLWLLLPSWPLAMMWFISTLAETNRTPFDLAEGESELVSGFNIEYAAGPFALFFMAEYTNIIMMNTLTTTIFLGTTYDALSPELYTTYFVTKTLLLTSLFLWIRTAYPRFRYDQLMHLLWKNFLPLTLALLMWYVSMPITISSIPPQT
Chain of mitochondrial complex I (O75251 39-213): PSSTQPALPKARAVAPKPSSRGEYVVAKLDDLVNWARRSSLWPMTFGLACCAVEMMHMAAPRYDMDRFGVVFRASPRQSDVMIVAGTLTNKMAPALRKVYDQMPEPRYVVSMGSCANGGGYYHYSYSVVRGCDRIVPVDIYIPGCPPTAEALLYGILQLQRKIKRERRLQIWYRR
Chain of mitochondrial complex I (P03897 whole entry, further chain): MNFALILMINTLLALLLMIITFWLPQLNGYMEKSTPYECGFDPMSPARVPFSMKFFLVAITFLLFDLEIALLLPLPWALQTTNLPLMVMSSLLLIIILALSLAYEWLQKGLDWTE
Chain of mitochondrial complex I (O75306 34-463): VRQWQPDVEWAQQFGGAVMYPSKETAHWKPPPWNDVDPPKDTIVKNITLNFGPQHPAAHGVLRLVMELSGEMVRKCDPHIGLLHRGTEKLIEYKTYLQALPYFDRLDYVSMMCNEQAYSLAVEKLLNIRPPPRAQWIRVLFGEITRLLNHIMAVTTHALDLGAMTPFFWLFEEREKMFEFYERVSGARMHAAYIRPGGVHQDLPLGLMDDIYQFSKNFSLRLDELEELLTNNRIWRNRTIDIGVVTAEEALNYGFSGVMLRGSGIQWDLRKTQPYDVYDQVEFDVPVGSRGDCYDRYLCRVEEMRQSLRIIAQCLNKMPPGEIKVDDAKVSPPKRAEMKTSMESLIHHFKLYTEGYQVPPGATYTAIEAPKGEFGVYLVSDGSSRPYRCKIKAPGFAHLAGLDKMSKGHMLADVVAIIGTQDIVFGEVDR
Chain of mitochondrial complex I (O75489 37-264, further chain): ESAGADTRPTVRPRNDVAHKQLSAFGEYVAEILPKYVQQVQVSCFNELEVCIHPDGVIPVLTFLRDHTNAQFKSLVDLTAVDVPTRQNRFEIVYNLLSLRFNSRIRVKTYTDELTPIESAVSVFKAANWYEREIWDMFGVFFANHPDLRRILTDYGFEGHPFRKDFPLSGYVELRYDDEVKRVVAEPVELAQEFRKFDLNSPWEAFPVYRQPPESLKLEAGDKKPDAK
Experimental: (§2) Respiratory enzyme activity in intact and permeabilized cells. The mitochondrial function in intact and permeabilized pancreatic cancer cells was measured using a Seahorse XF96 Extracellular Flux Analyzer (Seahorse Bioscience, North Billerica, Mass., USA). Unless specified otherwise, assays in intact cells were performed as previously described. Measurement of mitochondrial respiratory complexes in permeabilized cells was performed according to the manufacturer's instructions (Seahorse Bioscience). Briefly, intact cells were permeabilized using 1 nM Plasma Membrane Permeabilizer (PMP, Seahorse Bioscience) immediately before oxygen consumption rate (OCR) measurement by XF96. The oxygen consumption derived from mitochondrial complex I or complex II activity was measured by providing different substrates to mitochondria, e.g., pyruvate/malate for complex I and succinate for complex II activity. Rotenone, malonate and antimycin A were used as specific inhibitors of mitochondrial complex I, II and III activities, respectively.
The oxygen consumption rate was measured using the permeabilized MiaPaCa-2 cells in MAS buffer supplemented with pyruvate. The use of permeabilized cells avoids differences in cellular uptake of compounds. […] We tested the effect of pretreating cells with Mito-Met10 or Met using the permeabilized model. MiaPaCa-2 cells were treated with Met and Mito-Met10 for 24 h and the oxygen consumption studies were performed in these cells after permeabilization.

MiaPaCa-2 cells [5] = test: Oxygen consumption rate in intact cells, Seahorse XF96; type: cell-based, human
Experimental: as §2
Effects of Met and Mito-Met analogs on mitochondrial bioenergetics in MiaPaCa-2 cells. The oxygen consumption rate (OCR) and the extracellular acidification rate (ECAR) were measured as a readout of mitochondrial function and glycolysis using a Seahorse Bioscience XF96 extracellular flux analyzer. We compared the immediate OCR changes in response to different concentrations (e.g., IC50 or higher values determined by clonogenic assay) of Met, Mito-Met2, Mito-Met6, Mito-Met10, and phenformin (FIG. 13A).
Next we monitored the mitochondrial OCR changes in MiaPaCa-2 cells after 24 h treatment with Met, Mito-Met analogs, and phenformin followed by a washout of the treatments and return to fresh cell culture media.

MiaPaCa-2 cells [6] = test: Sytox Green cytotoxicity assay; type: cell-based; details: 100 μM, 24 h
Experimental: Cytotoxicity assay. To determine the cytotoxicity of Mito-Met analogs and other TPP^+-conjugated to a long chain aliphatic hydrocarbon, we used the Sytox assay as described previously. MiaPaCa-2 cells were treated for 24 h, and dead cells were monitored in the presence of 200 nM Sytox Green (Invitrogen). The Sytox method labels the nuclei of dead cells yielding green fluorescence. Fluorescence intensities from the dead cells in 96-well plate were acquired in real time every 15 min after 4 h using a plate reader (BMG Labtech, Inc.) equipped with an atmosphere controller set at 37° C. and 5% CO2:95% air, using a fluorescence detection with 485 nm (excitation) and 535 nm (emission). To measure the total cell number, all of the samples in each treatment group were permeabilized by adding Triton X 100 (0.065%) in the presence of Sytox Green for 3 h, and maximal fluorescence intensities were taken as 100%. Data are represented as a percentage of dead cells after normalization to total cell number for each group.
Induction of cell death was monitored by Sytox Green staining, as shown previously. MiaPaCa-2 cells were treated with Mito-Met10 (100 μM), Mito-CP (100 μM), or Met (30 mM) and other controls for 24 h and cell death was measured in real time.

## CN(C)C(=N)N=C(N)N [Metformin, metformin, reference compound]
MiaPaCa-2 cells [1]
  radiosensitization: increased radiosensitization
MiaPaCa-2 cells [2]
  cellular uptake compared with phenformin: considerably lower than phenformin
[3]; 1 mg/kg
  Kidney BUN: 30 ± 7 mg/dL
  Liver ALT: 35 ± 15 IU/L
  Liver AST: 189 ± 117 IU/L
[3]; 150 mg/kg
  Kidney BUN: 22 ± 2 mg/dL
  Liver ALT: 19 ± 3 IU/L
  Liver AST: 127 ± 24 IU/L
MCF-10A
  effect on cell confluence: not significantly affected
MiaPaCa-2 cells [4]; 3 mM, 24 h
  colony formation: Almost no colony formation
MiaPaCa-2 cells [4]; read-out: IC50, colony formation / survival fraction, MiaPaCa-2, 24 h treatment
  IC50: 1300 µM
HaCaT
  effect on cell confluence: not significantly affected
Mitochondrial complex I
  concentration at which OCR was inhibited: 3,000 μM
MiaPaCa-2 cells [5]; OCR measured immediately after addition
  concentration decreasing oxygen consumption: 1 to 10 mM

## Br.N=C(N)NC(=N)NCC[P+](c1ccccc1)(c1ccccc1)c1ccccc1 [Mito-Met2]
MiaPaCa-2 cells [5]; 24 h treatment, washout
  concentration at which OCR was inhibited: 25 µM

## CC1(C)CC(OCCCCC[P+](c2ccccc2)(c2ccccc2)c2ccccc2)CC(C)(C)N1[O].[Br-] [Mito-Tempol, reference compound]
MiaPaCa-2 cells [6]
  cell death, Sytox Green staining: considerably more cytotoxic

## [H]/N=C(/N)N/C(=N/[H])NCCc1ccccc1 [phenformin, reference compound]
MiaPaCa-2 cells [5]; immediate
  concentration inhibiting OCR to the same extent as Met: ten-fold lower concentration
